Laboratory results: publication doi:10.1101/2024.08.19.608619, “Discovery of potent SARS-CoV-2 nsp3 macrodomain inhibitors uncovers lack of translation to cellular antiviral response” (bioRxiv, 2024)
“And” between values parts separate entries of the source, which are not always exact repeats. Equal values may be shown once. Read-outs that look alike come from different tables or passages of the source.

Key:
[1] = target: CDK7/cyclinH/MAT1(h) (Homo sapiens, UniProt P50613); assay: biochemical; design: In vitro kinase panel profiling, per cent remaining kinase activity at 10 uM; details: atp_concentration=90, read-out: % of control remaining
From the text: (§1) We derisk potential for off-target activity by profiling the compound in a CEREP panel, a standard secondary pharmacology assessment, as well as a kinase panel to derisk a potential hinge-binding motif in our leads, and a PARP panel to derisk activity against human […]. Reassuringly, the compounds are selective, with the only off-targets being moderate human CHRM2 and KOR receptors activity associated with ASAP-0011198.

[2] = target: CDK9/cyclin T1(h) (Homo sapiens, UniProt P50750); assay: biochemical; design: In vitro kinase panel profiling, per cent remaining kinase activity at 10 uM; details: atp_concentration=45, read-out: % of control remaining
From the text: as §1

[3] = target: T1, CHK1(h) (Homo sapiens, UniProt O14757); assay: biochemical; design: In vitro kinase panel profiling, per cent remaining kinase activity at 10 uM; details: atp_concentration=90, read-out: % of control remaining
T1 construct: gene CHEK1
T1 sequence (O14757 1-476): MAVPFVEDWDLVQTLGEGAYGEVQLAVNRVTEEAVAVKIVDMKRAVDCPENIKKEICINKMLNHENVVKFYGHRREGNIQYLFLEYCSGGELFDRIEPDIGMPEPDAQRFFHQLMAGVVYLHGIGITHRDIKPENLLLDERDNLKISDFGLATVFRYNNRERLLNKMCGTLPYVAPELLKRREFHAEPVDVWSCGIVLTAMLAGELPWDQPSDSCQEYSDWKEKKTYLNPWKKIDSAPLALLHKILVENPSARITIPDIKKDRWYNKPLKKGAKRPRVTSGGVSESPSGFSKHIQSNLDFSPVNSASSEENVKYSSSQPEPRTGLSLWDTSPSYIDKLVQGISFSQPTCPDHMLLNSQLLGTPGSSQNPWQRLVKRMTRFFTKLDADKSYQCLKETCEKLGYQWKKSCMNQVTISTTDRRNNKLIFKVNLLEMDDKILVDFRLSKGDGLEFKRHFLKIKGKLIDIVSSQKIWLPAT
From the text: as §1

[4] = target: T2, CK1γ1(h) (Homo sapiens, UniProt Q9HCP0); assay: biochemical; design: In vitro kinase panel profiling, per cent remaining kinase activity at 10 uM; details: atp_concentration=15, read-out: % of control remaining
T2 construct: gene CSNK1G1
From the text: as §1

[5] = target: T3, CK2α2(h) (Homo sapiens, UniProt P19784); assay: biochemical; design: In vitro kinase panel profiling, per cent remaining kinase activity at 10 uM; details: atp_concentration=10, read-out: % of control remaining
T3 construct: gene CSNK2A2
From the text: as §1

[6] = target: T4, CaMKI(h) (Homo sapiens, UniProt Q14012); assay: biochemical; design: In vitro kinase panel profiling, per cent remaining kinase activity at 10 uM; details: atp_concentration=200, read-out: % of control remaining
T4 construct: gene CAMK1
From the text: as §1

[7] = target: EGFR(h) (Homo sapiens, UniProt P00533); assay: biochemical; design: In vitro kinase panel profiling, per cent remaining kinase activity at 10 uM; details: atp_concentration=10, read-out: % of control remaining
From the text: as §1

[8] = target: EphA5(h) (Homo sapiens, UniProt P54756); assay: biochemical; design: In vitro kinase panel profiling, per cent remaining kinase activity at 10 uM; details: atp_concentration=10, read-out: % of control remaining
From the text: as §1

[9] = target: Fyn(h) (Homo sapiens, UniProt P06241); assay: biochemical; design: In vitro kinase panel profiling, per cent remaining kinase activity at 10 uM; details: atp_concentration=70, read-out: % of control remaining
From the text: as §1

[10] = target: T5, IGF-1R(h) (Homo sapiens, UniProt P08069); assay: biochemical; design: In vitro kinase panel profiling, per cent remaining kinase activity at 10 uM; details: atp_concentration=200, read-out: % of control remaining
T5 construct: gene IGF1R
From the text: as §1

[11] = target: KDR(h) (Homo sapiens, UniProt P35968); assay: biochemical; design: In vitro kinase panel profiling, per cent remaining kinase activity at 10 uM; details: atp_concentration=90, read-out: % of control remaining
From the text: as §1

[12] = target: T6, MLK1(h) (Homo sapiens, UniProt P80192); assay: biochemical; design: In vitro kinase panel profiling, per cent remaining kinase activity at 10 uM; details: atp_concentration=45, read-out: % of control remaining
T6 construct: gene MAP3K9
From the text: as §1

[13] = target: PAK2(h) (Homo sapiens, UniProt Q13177); assay: biochemical; design: In vitro kinase panel profiling, per cent remaining kinase activity at 10 uM; details: atp_concentration=90, read-out: % of control remaining
From the text: as §1

[14] = target: T7, PI3 Kinase (p120γ)(h) (Homo sapiens, UniProt P48736); assay: biochemical; design: In vitro kinase panel profiling, per cent remaining kinase activity at 10 uM; details: atp_concentration=100, read-out: % of control remaining
T7 construct: gene PIK3CG
From the text: as §1

[15] = target: T8, ROCK-I(h) (Homo sapiens, UniProt Q13464); assay: biochemical; design: In vitro kinase panel profiling, per cent remaining kinase activity at 10 uM; details: atp_concentration=70, read-out: % of control remaining
T8 construct: gene ROCK1
From the text: as §1

[16] = target: T9, c-RAF(h) (Homo sapiens, UniProt P04049); assay: biochemical; design: In vitro kinase panel profiling, per cent remaining kinase activity at 10 uM; details: atp_concentration=120, read-out: % of control remaining
T9 construct: gene RAF1
From the text: as §1

[17] = target: mTOR(h) (Homo sapiens, UniProt P42345); assay: biochemical; design: In vitro kinase panel profiling, per cent remaining kinase activity at 10 uM; details: atp_concentration=70, read-out: % of control remaining
From the text: as §1

[18] = Permeability Papp (AB) MDR1/MDCKII; details: for papp_a_to_b_mean / papp_b_to_a_mean / perc_recovery_a_to_b_mean / perc_recovery_b_to_a_mean: In vitro MDR1-MDCKII permeability; for papp_b_to_a_mean: B to A; for perc_recovery_a_to_b_mean / perc_recovery_a_to_b_inhibitor_mean: recovery A to B; for perc_recovery_b_to_a_mean / perc_recovery_b_to_a_inhibitor_mean: recovery B to A; for perc_recovery_a_to_b_inhibitor_mean / perc_recovery_b_to_a_inhibitor_mean: MDR1-MDCKII, with inhibitor Cyclosporin A

T4 sequence (Q14012 whole entry): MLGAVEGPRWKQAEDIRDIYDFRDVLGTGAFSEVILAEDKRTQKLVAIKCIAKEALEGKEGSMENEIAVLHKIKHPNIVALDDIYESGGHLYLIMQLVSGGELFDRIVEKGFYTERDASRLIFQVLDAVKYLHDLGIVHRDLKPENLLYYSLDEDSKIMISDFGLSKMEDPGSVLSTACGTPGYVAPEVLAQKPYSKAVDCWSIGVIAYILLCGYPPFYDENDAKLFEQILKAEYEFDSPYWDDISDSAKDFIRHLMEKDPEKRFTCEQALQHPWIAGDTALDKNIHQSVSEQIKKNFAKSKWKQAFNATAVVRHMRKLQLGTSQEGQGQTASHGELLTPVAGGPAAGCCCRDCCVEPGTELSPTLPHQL
T5 sequence (P08069 whole entry): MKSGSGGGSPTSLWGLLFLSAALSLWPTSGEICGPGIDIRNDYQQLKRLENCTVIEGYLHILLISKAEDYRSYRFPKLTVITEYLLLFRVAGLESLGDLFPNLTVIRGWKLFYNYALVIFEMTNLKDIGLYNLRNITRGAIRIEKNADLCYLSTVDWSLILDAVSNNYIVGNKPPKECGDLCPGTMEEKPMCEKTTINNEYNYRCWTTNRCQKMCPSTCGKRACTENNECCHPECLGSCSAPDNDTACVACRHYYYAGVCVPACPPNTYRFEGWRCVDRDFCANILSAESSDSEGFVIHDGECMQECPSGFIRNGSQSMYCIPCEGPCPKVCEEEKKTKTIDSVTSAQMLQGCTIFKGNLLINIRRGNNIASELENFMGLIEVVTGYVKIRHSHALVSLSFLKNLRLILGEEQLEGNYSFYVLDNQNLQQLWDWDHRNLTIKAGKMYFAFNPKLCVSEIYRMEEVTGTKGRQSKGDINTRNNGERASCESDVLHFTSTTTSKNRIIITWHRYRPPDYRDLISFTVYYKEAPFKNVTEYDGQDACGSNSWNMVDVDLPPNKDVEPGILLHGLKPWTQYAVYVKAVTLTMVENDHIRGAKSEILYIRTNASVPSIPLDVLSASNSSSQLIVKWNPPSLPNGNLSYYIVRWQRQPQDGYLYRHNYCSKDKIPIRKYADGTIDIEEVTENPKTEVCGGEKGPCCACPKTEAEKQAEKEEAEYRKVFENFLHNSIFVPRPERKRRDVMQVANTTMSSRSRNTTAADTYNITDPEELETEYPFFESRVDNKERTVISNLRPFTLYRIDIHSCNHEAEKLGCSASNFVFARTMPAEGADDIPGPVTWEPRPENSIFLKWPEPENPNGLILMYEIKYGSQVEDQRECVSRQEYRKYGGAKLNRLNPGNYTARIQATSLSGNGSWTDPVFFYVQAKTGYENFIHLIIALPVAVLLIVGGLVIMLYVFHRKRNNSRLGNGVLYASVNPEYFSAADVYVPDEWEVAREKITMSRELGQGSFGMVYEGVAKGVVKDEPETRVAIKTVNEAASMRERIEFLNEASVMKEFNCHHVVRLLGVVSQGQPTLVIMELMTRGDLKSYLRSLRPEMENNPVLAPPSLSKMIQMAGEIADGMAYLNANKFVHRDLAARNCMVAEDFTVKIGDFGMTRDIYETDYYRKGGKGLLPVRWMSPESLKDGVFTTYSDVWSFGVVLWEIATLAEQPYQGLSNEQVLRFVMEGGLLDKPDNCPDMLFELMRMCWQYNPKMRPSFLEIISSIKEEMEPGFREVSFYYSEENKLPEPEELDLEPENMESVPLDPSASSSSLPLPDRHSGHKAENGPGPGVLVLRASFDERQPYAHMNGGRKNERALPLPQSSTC
T8 sequence (Q13464 whole entry): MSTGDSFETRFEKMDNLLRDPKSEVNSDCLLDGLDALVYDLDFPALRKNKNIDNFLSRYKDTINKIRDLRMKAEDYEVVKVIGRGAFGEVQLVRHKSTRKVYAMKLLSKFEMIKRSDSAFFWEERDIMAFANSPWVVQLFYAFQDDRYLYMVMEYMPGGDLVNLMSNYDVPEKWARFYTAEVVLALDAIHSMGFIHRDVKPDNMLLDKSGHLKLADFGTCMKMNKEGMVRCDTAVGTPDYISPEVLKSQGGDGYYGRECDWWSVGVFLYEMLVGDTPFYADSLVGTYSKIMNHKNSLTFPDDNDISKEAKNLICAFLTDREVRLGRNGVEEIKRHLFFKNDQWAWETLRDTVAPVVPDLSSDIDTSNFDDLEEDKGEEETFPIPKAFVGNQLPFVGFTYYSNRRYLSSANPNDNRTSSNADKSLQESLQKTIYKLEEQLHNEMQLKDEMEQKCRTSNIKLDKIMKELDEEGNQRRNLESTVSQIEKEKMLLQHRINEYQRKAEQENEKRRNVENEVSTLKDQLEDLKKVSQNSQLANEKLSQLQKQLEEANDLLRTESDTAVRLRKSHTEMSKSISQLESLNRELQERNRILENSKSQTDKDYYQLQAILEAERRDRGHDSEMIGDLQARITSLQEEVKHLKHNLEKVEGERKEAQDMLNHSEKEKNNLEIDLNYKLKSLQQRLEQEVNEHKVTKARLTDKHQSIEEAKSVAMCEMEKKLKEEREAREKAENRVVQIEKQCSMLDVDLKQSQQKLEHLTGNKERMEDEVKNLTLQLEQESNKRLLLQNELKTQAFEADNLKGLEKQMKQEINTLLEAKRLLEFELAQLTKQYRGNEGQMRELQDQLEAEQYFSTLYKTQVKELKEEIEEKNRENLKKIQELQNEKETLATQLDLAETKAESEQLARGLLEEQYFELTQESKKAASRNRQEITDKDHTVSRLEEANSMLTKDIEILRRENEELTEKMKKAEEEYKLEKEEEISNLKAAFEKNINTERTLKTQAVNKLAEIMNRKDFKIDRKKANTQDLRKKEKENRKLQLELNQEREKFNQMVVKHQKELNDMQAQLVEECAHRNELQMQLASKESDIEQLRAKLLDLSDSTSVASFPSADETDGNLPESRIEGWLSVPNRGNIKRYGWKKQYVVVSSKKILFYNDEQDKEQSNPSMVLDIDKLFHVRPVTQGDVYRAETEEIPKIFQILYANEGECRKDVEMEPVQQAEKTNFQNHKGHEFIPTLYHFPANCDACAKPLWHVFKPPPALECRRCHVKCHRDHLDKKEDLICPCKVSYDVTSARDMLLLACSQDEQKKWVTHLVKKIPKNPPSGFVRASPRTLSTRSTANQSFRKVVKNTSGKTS
Chain of KDR(h) (P35968 whole entry): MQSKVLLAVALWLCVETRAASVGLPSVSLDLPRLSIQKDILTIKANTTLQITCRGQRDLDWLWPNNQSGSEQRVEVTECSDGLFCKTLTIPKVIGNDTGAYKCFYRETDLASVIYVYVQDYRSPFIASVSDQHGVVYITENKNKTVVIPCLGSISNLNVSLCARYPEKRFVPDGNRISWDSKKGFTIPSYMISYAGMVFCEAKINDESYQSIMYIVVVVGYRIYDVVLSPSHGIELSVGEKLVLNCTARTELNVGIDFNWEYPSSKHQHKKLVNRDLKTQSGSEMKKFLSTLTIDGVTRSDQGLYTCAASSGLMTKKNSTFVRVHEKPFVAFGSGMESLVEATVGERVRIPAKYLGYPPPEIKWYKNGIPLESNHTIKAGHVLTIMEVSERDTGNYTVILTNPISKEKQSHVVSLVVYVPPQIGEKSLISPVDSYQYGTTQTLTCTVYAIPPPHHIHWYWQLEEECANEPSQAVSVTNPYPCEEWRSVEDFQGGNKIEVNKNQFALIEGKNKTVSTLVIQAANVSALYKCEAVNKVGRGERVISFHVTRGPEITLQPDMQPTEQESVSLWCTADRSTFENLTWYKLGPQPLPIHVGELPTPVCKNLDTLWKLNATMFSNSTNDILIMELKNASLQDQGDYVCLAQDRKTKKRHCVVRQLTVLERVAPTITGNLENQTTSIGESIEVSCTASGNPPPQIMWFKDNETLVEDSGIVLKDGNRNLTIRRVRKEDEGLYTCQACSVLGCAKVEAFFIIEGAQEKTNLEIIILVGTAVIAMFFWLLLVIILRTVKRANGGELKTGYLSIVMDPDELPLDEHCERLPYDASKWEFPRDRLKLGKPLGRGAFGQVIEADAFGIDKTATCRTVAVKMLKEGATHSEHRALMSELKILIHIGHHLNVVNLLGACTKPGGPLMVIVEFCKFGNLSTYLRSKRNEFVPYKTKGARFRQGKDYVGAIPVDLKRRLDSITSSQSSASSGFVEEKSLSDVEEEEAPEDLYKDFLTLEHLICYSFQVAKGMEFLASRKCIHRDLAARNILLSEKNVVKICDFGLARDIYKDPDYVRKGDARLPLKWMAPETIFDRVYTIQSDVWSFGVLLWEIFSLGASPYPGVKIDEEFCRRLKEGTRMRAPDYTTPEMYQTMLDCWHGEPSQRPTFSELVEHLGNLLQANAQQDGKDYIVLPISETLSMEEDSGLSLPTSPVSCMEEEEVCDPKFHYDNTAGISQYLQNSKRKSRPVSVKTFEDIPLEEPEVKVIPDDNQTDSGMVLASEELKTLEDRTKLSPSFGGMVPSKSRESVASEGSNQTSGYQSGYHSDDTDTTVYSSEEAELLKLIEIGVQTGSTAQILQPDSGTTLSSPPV
T2 sequence (Q9HCP0 whole entry): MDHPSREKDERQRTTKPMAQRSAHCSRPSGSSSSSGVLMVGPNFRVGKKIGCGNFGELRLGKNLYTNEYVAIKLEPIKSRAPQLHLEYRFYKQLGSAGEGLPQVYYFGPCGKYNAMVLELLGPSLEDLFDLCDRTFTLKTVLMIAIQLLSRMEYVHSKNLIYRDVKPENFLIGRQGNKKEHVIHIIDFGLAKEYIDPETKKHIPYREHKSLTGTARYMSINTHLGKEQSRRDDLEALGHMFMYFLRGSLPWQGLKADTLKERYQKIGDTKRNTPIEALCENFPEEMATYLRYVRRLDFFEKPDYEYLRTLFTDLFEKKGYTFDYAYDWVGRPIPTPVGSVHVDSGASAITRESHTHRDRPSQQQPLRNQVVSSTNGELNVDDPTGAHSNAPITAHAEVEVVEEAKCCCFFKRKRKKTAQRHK

CC(C)C(Nc1ncnc2[nH]c(C(=O)NC3CCN(C)C3)cc12)c1ccc2c(c1)S(=O)(=O)CCC2 (centres unmarked) [ASAP-0011198]
remaining activity at 10 µM ([1]; batch_name=ASAP-0011198-002): 101% | remaining activity at 10 µM ([2]; batch_name=ASAP-0011198-002): 108% | remaining activity at 10 µM ([3]; batch_name=ASAP-0011198-002): 118% | remaining activity at 10 µM ([4]; batch_name=ASAP-0011198-002): 100% | remaining activity at 10 µM ([5]; batch_name=ASAP-0011198-002): 98% | remaining activity at 10 µM ([6]; batch_name=ASAP-0011198-002): 100% | remaining activity at 10 µM ([7]; batch_name=ASAP-0011198-002): 102% | remaining activity at 10 µM ([8]; batch_name=ASAP-0011198-002): 100% | remaining activity at 10 µM ([9]; batch_name=ASAP-0011198-002): 107% | remaining activity at 10 µM ([10]; batch_name=ASAP-0011198-002): 104% | remaining activity at 10 µM ([11]; batch_name=ASAP-0011198-002): 96% | remaining activity at 10 µM ([12]; batch_name=ASAP-0011198-002): 96% | remaining activity at 10 µM ([13]; batch_name=ASAP-0011198-002): 99% | remaining activity at 10 µM ([14]; batch_name=ASAP-0011198-002): 97% | remaining activity at 10 µM ([15]; batch_name=ASAP-0011198-002): 98% | remaining activity at 10 µM ([16]; batch_name=ASAP-0011198-002): 105% | remaining activity at 10 µM ([17]; batch_name=ASAP-0011198-002): 103% | papp_a_to_b_mean ([18]; A to B, no inhibitor): 0.0631 ×10⁻⁶ cm/s | papp_b_to_a_mean ([18]; no inhibitor): 0.0474 ×10⁻⁶ cm/s | perc_recovery_a_to_b_mean ([18]; mean): 94.6% | perc_recovery_a_to_b_mean ([18]; no inhibitor): 86.2% and 71.8% | perc_recovery_b_to_a_mean ([18]; no inhibitor): 93.1% and 82.5% | perc_recovery_a_to_b_inhibitor_mean [18]: 100.0% and 74.6% | perc_recovery_b_to_a_inhibitor_mean [18]: 100.0% and 87.0% | Papp A→B ([18]; dog, MDCK-MDR1, Papp (AB) MDR1/MDCKII, A to B): 2.9 ×10⁻⁶ cm/s

Cn1ncc(-c2cc3c(N[C@@H](c4ccc5c(n4)OCCO5)C(C)(C)C)ncnc3[nH]2)c1C#N [ASAP-0011221]
remaining activity at 10 µM ([1]; batch_name=ASAP-0011221-002): 108% | remaining activity at 10 µM ([2]; batch_name=ASAP-0011221-002): 130% | remaining activity at 10 µM ([3]; batch_name=ASAP-0011221-002): 125% | remaining activity at 10 µM ([4]; batch_name=ASAP-0011221-002): 94% | remaining activity at 10 µM ([5]; batch_name=ASAP-0011221-002): 92% | remaining activity at 10 µM ([6]; batch_name=ASAP-0011221-002): 87% | remaining activity at 10 µM ([7]; batch_name=ASAP-0011221-002): 99% | remaining activity at 10 µM ([8]; batch_name=ASAP-0011221-002): 102% | remaining activity at 10 µM ([9]; batch_name=ASAP-0011221-002): 82% | remaining activity at 10 µM ([10]; batch_name=ASAP-0011221-002): 77% | remaining activity at 10 µM ([11]; batch_name=ASAP-0011221-002): 83% | remaining activity at 10 µM ([12]; batch_name=ASAP-0011221-002): 94% | remaining activity at 10 µM ([13]; batch_name=ASAP-0011221-002): 111% | remaining activity at 10 µM ([14]; batch_name=ASAP-0011221-002): 88% | remaining activity at 10 µM ([15]; batch_name=ASAP-0011221-002): 129% | remaining activity at 10 µM ([16]; batch_name=ASAP-0011221-002): 87% | remaining activity at 10 µM ([17]; batch_name=ASAP-0011221-002): 105% | papp_a_to_b_mean ([18]; A to B, mean): 14.0 ×10⁻⁶ cm/s | papp_a_to_b_mean ([18]; A to B, no inhibitor): 2.76 ×10⁻⁶ cm/s | papp_b_to_a_mean ([18]; no inhibitor): 5.51 ×10⁻⁶ cm/s | perc_recovery_a_to_b_mean ([18]; mean): 84.8% | perc_recovery_a_to_b_mean ([18]; no inhibitor): 94.8% | perc_recovery_b_to_a_mean ([18]; no inhibitor): 101.0% | perc_recovery_a_to_b_inhibitor_mean [18]: 61.6% | perc_recovery_b_to_a_inhibitor_mean [18]: 62.4%
